Experimental data as given in PubChem BioAssay (NCI).
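Step 1: Grow cells in 96-well plates. Step 2: Expose to compound for 48 hours at 5 concentrations. Step 3: Interpolate endpoints linearly; if unreached, use highest concentration. At the GI50, growth is halved. TGI is the concentration that stops growth completely.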

How the values were obtained:
Assay in all cases: NCI anticancer screen, dose series, 48 h
[1] = tested on: HCC-2998 colon
[2] = tested on: HCT-15 colon
[3] = tested on: MCF7 breast
[4] = tested on: 786-0 renal
[5] = tested on: SK-MEL-5 melanoma
[6] = tested on: EKVX NSCLC
[7] = tested on: MDA-MB-231 breast
[8] = tested on: SNB-19 CNS
[9] = tested on: K-562 leukemia
[10] = tested on: T-47D breast
[11] = tested on: A549 NSCLC
[12] = tested on: OVCAR-3 ovarian
[13] = tested on: LOX IMVI melanoma
[14] = tested on: TK-10 renal
[15] = tested on: ACHN renal
[16] = tested on: SW-620 colon
[17] = tested on: COLO 205 colon
[18] = tested on: A498 renal
[19] = tested on: MALME-3M melanoma
[20] = tested on: CAKI-1 renal
[21] = tested on: HOP-62 NSCLC
[22] = tested on: SF-295 CNS
[23] = tested on: OVCAR-4 ovarian
[24] = tested on: SK-OV-3 ovarian
[25] = tested on: MOLT-4 leukemia
[26] = tested on: M14 melanoma

## COc1ccc(C2=C(c3cn(C)c4ccccc34)C(=O)OC2)cc1OC
[1]
  GI50: 2.86 µM
  TGI: > 100 µM
[2]
  GI50: 0.621 µM
  TGI: > 100 µM
[3]
  GI50: 0.713 µM
  TGI: > 100 µM
[4]
  GI50: 6.67 µM
  TGI: > 100 µM
[5]
  GI50: 3.74 µM
  TGI: > 100 µM
[6]
  GI50: 4.64 µM
  TGI: > 100 µM
[7]
  GI50: 2.42 µM
  TGI: > 100 µM
[8]
  GI50: 4.18 µM
  TGI: > 100 µM
[9]
  GI50: 0.441 µM
  TGI: > 100 µM
[10]
  GI50: 4.07 µM
  TGI: > 100 µM
[11]
  GI50: 2.67 µM
  TGI: > 100 µM
[12]
  GI50: 1.25 µM
  TGI: 5.45 µM
[13]
  GI50: 4.54 µM
  TGI: > 100 µM
[14]
  GI50: > 100 µM
  TGI: > 100 µM
[15]
  GI50: 7.95 µM
  TGI: > 100 µM
[16]
  GI50: 0.587 µM
  TGI: > 100 µM
[17]
  GI50: 1.5 µM
  TGI: 27.9 µM
[18]
  GI50: 0.374 µM
  TGI: 3.5 µM
[19]
  GI50: 9.32 µM
  TGI: > 100 µM
[20]
  GI50: 0.747 µM
  TGI: > 100 µM
[21]
  GI50: 3 µM
  TGI: > 100 µM
[22]
  GI50: 2.65 µM
  TGI: > 100 µM
[23]
  GI50: 6.77 µM
  TGI: > 100 µM
[24]
  GI50: 5.6 µM
  TGI: > 100 µM
[25]
  GI50: 2.8 µM
  TGI: > 100 µM
[26]
  GI50: 0.938 µM
